Experimental data taken from PMC7571155, “Design, Synthesis and Biological Investigation of Flavone Derivatives as Potential Multi-Receptor Atypical Antipsychotics” (Molecules, 2020).
Like-named read-outs stand apart in the source and are kept apart here.

Tests used:
[1] = target: 5-HT2A receptor (Rattus norvegicus, UniProt P14842); experiment: 5-HT2A receptor radioligand binding (3H-ketanserin); details: rat brain cortex, 3H-ketanserin, mean ± SEM of three experiments
[2] = target: D2 receptor (Rattus norvegicus, UniProt P61169); experiment: D2 receptor radioligand binding (3H-spiperone); details: 3H-spiperone, mean ± SEM of three experiments
[3] = Receptor Affinity Ki ± SEM 5-HT2A
[4] = Receptor Affinity Ki ± SEM D2, rat striatum
[5] = read-out: Receptor Affinity Ki ± SEM 5-HT2A
[6] = read-out: Receptor Affinity Ki ± SEM D2, rat striatum

Chain of 5-HT2A receptor (P14842 whole entry): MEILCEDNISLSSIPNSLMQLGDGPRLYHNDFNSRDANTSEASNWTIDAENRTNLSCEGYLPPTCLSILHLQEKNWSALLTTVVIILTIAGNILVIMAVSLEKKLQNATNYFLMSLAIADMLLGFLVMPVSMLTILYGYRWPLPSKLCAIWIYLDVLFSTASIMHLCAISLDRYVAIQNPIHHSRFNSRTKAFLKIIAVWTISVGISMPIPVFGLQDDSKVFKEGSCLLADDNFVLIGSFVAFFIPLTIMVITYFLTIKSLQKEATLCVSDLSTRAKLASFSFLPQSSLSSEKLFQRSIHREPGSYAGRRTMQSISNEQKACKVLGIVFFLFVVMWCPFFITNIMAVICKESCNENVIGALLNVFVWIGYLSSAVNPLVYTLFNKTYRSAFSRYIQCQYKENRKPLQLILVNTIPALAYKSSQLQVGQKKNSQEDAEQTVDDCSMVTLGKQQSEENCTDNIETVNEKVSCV
Chain of D2 receptor (P61169 whole entry): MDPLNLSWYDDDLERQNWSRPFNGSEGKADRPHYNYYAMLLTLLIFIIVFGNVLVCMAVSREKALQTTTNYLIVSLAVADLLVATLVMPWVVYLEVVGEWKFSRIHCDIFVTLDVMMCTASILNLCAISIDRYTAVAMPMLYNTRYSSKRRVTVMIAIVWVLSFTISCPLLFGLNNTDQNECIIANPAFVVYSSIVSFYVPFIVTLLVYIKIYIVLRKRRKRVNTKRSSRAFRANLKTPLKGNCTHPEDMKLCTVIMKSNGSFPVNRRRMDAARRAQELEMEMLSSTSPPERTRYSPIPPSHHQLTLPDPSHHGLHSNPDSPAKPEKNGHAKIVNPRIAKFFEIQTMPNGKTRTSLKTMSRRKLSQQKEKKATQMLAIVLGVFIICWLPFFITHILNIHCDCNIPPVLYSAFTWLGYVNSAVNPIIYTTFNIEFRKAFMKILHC

What does the source list for COc1ccccc1N1CCN(CCCCOc2ccc3c(c2)OC2(CCCC2)CC3=O)CC1 [Compound 9b, 7-(4-(4-(2-Methoxyphenyl)piperazin-1-yl)butoxy) spiro[chromane-2,1′-cyclopentan]-4-one]?
Ki [1, 3]: 61.7 ± 8.6 nM; Ki [2, 4]: 3790 ± 409 nM; melting point: 96 to 98 °C

With Cc1cc2c(cc1OCCCCN1CCC(c3noc4cc(F)ccc34)CC1)OCCC2=O [Compound 13c, 7-(4-(4-(6-Fluorobenzo[d]isoxazol-3-yl)piperidin-1-yl)butoxy)-6-methylchroman-4-one] as the compound, how does the Ki [1, 3] read?
The Ki was 15.9 ± 2.3 nM.

And the Ki [2, 4]?
The Ki was 25.8 ± 3.9 nM.

What about the melting point of the same compound?
Its melting point is 91 to 93 °C.

For COc1ccccc1N1CCN(CCCCOc2ccc3c(c2)OC(C)(C)CC3=O)CC1 [Compound 6d, 7-(4-(4-(2-Methoxyphenyl)piperazin-1-yl)butoxy)-2,2-dimethylchroman-4-one], which Ki [1, 3] is on record?
Its Ki is 86.8 ± 5.6 nM.

And the Ki [2, 4]?
Its Ki is 2350 ± 317 nM.

And the melting point?
The melting point was 128 to 130 °C.

Which Ki [1, 3] does the source give for CC1(C)CC(=O)c2ccc(OCCCCN3CCN(c4ccccn4)CC3)cc2O1 [Compound 6e, 2,2-Dimethyl-7-(4-(4-(pyridin-2-yl)piperazin-1-yl)butoxy) chroman-4-one] here?
Its Ki is 722 ± 64.9 nM.

And the Ki [2, 4]?
The Ki was 4590 ± 510 nM.

What about the melting point of the same compound?
Its melting point is 127 to 129 °C.

With O=C1CC2(CCCCC2)Oc2cc(OCCCCN3CCN(c4cccc(Cl)c4Cl)CC3)ccc21 [Compound 9j, 7-(4-(4-(2,3-Dichlorophenyl)piperazin-1-yl)butoxy)spiro[chromane-2,1′-cyclohexan]-4-one] as the compound, how does the Ki [1, 3] read?
Its Ki is 35.8 ± 5.2 nM.

What about the Ki [2, 4] of the same compound?
Its Ki is 81.7 ± 9.7 nM.

What about the melting point of the same compound?
The melting point was 119 to 121 °C.

With CC1(C)CC(=O)c2ccc(OCCCCN3CCN(c4ccccc4F)CC3)cc2O1 [Compound 6b, 7-(4-(4-(2-Fluorophenyl)piperazin-1-yl)butoxy)-2,2-dimethylchroman-4-one] as the compound, how does the Ki [1, 3] read?
Its Ki is 72.5 ± 8.4 nM.

And the Ki [2, 4]?
The Ki was 777 ± 84.7 nM.

What about the melting point of the same compound?
Its melting point is 135 to 137 °C.

For CC1(C)CC(=O)c2ccc(OCCCCN3CCN(c4ccccc4)CC3)cc2O1 [Compound 6a, 2,2-Dimethyl-7-(4-(4-phenylpiperazin-1-yl)butoxy) chroman-4-one], which Ki [1, 3] is on record?
Its Ki is 89.8 ± 11.3 nM.

And the Ki [2, 4]?
Its Ki is 553 ± 68.7 nM.

And the melting point?
Its melting point is 131 to 133 °C.

With O=C1CC2(CCCCC2)Oc2cc(OCCCN3CCN(c4ccccc4C(F)(F)F)CC3)ccc21 [Compound 9f, 7-(3-(4-(2-(Trifluoromethyl)phenyl)piperazin-1-yl)propoxy)spiro[chromane-2,1′-cyclohexan]-4-one] as the compound, how does the Ki [1, 3] read?
The Ki was 76.7 ± 9.4 nM.

What about the Ki [2, 4] of the same compound?
The Ki was 915 ± 90.3 nM.

What about the melting point of the same compound?
Its melting point is 138 to 140 °C.

For CC1CC(=O)c2ccc(OCCCCN3CCC(c4noc5cc(F)ccc45)CC3)c(Cl)c2O1 (centres unmarked) [Compound 16b, 8-Chloro-7-(4-(4-(6-fluorobenzo[d]isoxazol-3-yl)piperidin-1-yl)butoxy)-2-methylchroman-4-one], which Ki [1, 3] is on record?
Its Ki is 8.1 ± 1.1 nM.

What about the Ki [2, 4] of the same compound?
The Ki was 21.4 ± 2.4 nM.

What about the melting point of the same compound?
The melting point was 99 to 101 °C.

Which results are given for O=C1CC2(CCCCC2)Oc2cc(OCCCCN3CCC(c4nsc5ccccc45)CC3)ccc21 [Compound 9k, 7-(4-(4-(Benzo[d]isothiazol-3-yl)piperidin-1-yl)butoxy)spiro[chromane-2,1′-cyclohexan]-4-one]?
Ki [1, 3]: 75.6 ± 8.6 nM; Ki [2, 4]: 35.1 ± 4.7 nM; melting point: 129 to 130 °C

Which results are given for “7-(4-(4-(6-Fluorobenzo[d]isoxazol-3-yl)piperidin-1-yl)butoxy)-5-methylchroman-4-one [Compound 13b]”?
Ki [1, 5]: 10.5 ± 1.3 nM; Ki [2, 6]: 28.9 ± 3.4 nM

With “7-(4-(4-(6-Fluorobenzo[d]isoxazol-3-yl)piperidin-1-yl)butoxy)-8-methylchroman-4-one [Compound 13d]” as the compound, how does the Ki [1, 5] read?
The Ki was 13.7 ± 1.9 nM.

What about the Ki [2, 6] of the same compound?
The Ki was 22.9 ± 3.1 nM.

Which Ki [1, 3] does the source give for CC1(C)CC(=O)c2ccc(OCCCCN3CCN(c4cccc5sccc45)CC3)cc2O1 [Compound 6h, 7-(4-(4-(Benzo[b]thiophen-4-yl)piperazin-1-yl)butoxy)-2,2-dimethylchroman-4-one] here?
Its Ki is 55.2 ± 4.9 nM.

What about the Ki [2, 4] of the same compound?
The Ki was 43.1 ± 5.7 nM.

For O=C1CCOc2cc(OCCCCN3CCC(c4noc5cc(F)ccc45)CC3)ccc21 [Compound 13a, 7-(4-(4-(6-Fluorobenzo[d]isoxazol-3-yl)piperidin-1-yl)butoxy)chroman-4-one], which Ki [1, 3] is on record?
The Ki was 9.6 ± 0.8 nM.

And the Ki [2, 4]?
The Ki was 22.5 ± 2.6 nM.
